Results: patent EP4659750A1, “PHARMACEUTICAL COMPOSITION CONTAINING ß-LACTAMASE INHIBITOR AND USE THEREOF” (Evopoint Biosciences Co., Ltd., priority 2023, dated 2024)
In brackets after ≈: the same amount, converted by molar mass. Like-named read-outs stand apart in the source and are kept apart here.

Columns and labels:
[1] = test system: Pseudomonas aeruginosa ACC00680; test: Neutropenic mouse thigh infection model, Example 1 (imipenem and Compound 1); type: in vivo; conditions: doses at 1,3,5,7 h, thighs 9 h after inoculation
Protocol: (§1) In the following examples, the tests are conducted following the steps below. • (1) Immunization of mice: All mice are injected intraperitoneally with 150 mg/kg cyclophosphamide 4 days before inoculation and 100 mg/kg cyclophosphamide 1 day before inoculation to reduce their neutrophils by immunosuppression. […] The mice are inoculated approximately 24 hours after the second administration of the immunosuppressant. • (2) Bacterial culture: All bacterial strains used for inoculation are prepared from overnight broth cultures. In brief, each strain is allowed to grow in cation-adjusted MuellerHinton broth in a shaking incubator (300 RPM) at 37°C. The overnight cultures are washed twice with phosphate buffer solution (PBS) and adjusted to the optimal concentration in PBS.
(§2) For intravenous (IV) administration, the solution of Compound 1 is prepared using a Captisol vehicle, which is 25 mM acetate buffer (prepared with sodium acetate trihydrate) containing 10% w/v Captisol. The pH is adjusted to 5.0 with 2N acetic acid solution. A desired volume of buffer is added to the weighed sample, the desired concentration of Compound 1 is prepared in the buffer, which is then ultrasonically heated in a water bath until a clear solution was obtained. The administrated volume of Compound 1 is 5 mL/kg.
(§3) For subcutaneous (SC) administration, an imipenem solution or imipenem-cilastatin solution is prepared in sterile PBS by using imipenem monohydrate or imipenem monohydrate and cilastatin sodium. The desired concentration of imipenem is prepared by adding PBS to the solid powder, then sonicating the mixture in a water bath until a clear solution is obtained, and the administrated volume is 10 mL/kg.
(§4) The mice were divided into 15 groups, with 5 mice in each group. The test was carried out following the above steps, the concentration of the bacterial solution of Pseudomonas aeruginosa ACC00680 was 1.83×10^5 colony forming unit (CFU) per gram of thigh tissues, and the administration was conducted according to the scheme in the table below.
(§5) For Groups 2 to 15 above, animals were euthanized 9 hours after inoculation using an overdose of sodium pentobarbital, followed by confirmation of death by cervical dislocation. The thighs were dissected and weighed, then homogenized in an ice-cold sterile phosphate buffer using a Precellys microsphere homogenizer; and the homogenate was quantitatively cultured on drug-free agar (CLED or PSA) and incubated for 18-24 h at 37°C, followed by colony counting.
(§6) For the […] Group 1 (control group) above, animals were euthanized with an overdose of sodium pentobarbital 1 hour after inoculation. As described above, bilateral thighs were dissected and quantitatively cultured for use as final samples.

[2] = test system: Acinetobacter baumannii AR0274; test: Neutropenic mouse thigh infection model, Example 3; type: in vivo; conditions: doses at 1,3,5,7 h, thighs 9 h after inoculation
Protocol: as §1, §2, §3
The mice were divided into 16 groups, with 5 mice in each group. The test was carried out following the above experimental steps, the inoculation amount of Acinetobacter baumannii AR0274 was 1.8×10^6 CFU per gram of thigh tissue, and the administration was conducted according to the scheme in the table below.
as §5, with “16” for “15”
as §6

[3] = test system: Klebsiella pneumoniae ARo113; test: Neutropenic mouse thigh infection model, Example 4; type: in vivo; conditions: doses at 1,3,5,7 h, thighs 9 h after inoculation
Protocol: as §1, §2, §3
as §4, with “16” for “15”, “Klebsiella pneumoniae ARo113” for “Pseudomonas aeruginosa ACC00680”, “4.0x10^6 CFU” for “1.83×10^5 colony forming unit (CFU)”
as §5, with “16” for “15”, “12-16” for “18-24”, “30°C,” for “37°C,”
as §6

Pseudomonas aeruginosa = test: Mice neutropenic thigh infection model, human-simulated dosing regimen, Example 5; type: in vivo; conditions: monotherapy, human-simulated imipenem dosing regimen (500 mg, q6h, infused for 60 minutes); four strains; 24 h
Acinetobacter baumannii = test: as above; type: in vivo; conditions: monotherapy, human-simulated imipenem dosing regimen (500 mg, q6h, infused for 60 minutes); seven strains; 24 h
Klebsiella pneumoniae = test: as above; type: in vivo; conditions: monotherapy, human-simulated imipenem dosing regimen (500 mg, q6h, infused for 60 minutes); four strains
Protocol: A total of 15 bacterial strains (4 strains of Pseudomonas aeruginosa, 4 strains of Klebsiella pneumoniae and 7 strains of Acinetobacter baumannii, see the table below) were selected for dose study of Compound 1 in the mice neutropenic thigh infection model. In terms of administrated dose, imipenem was administered with a human-simulated dosing regimen (500 mg, q6h, infused for 60 minutes),and also combined with different doses of Compound 1.
At 0 h, the mean bacterial load in the thighs of mice was 5.92 ± 0.14 log10 CFU/thigh.

[4] = test system: Pseudomonas aeruginosa ACC00680; test: Neutropenic mouse thigh infection model, Example 2 (imipenem, cilastatin and Compound 1); type: in vivo; conditions: Compound 1 96 mg/kg total IV; doses at 1,3,5,7 h; thighs 9 h after inoculation
Protocol: as §1, with “The overnight cultures are washed twice with phosphate buffer solution (PBS) and adjusted to the optimal concentration in PBS.” left out
as §5, with “16” for “15”
as §6

[5] = Solubility of Compound 1 (HPLC), selection of solubilizer type; type: physicochemical; conditions: for solubility at 24 h: read-out: Concentration
Protocol: The solubilization effect of sodium sulfobutylether-β-cyclodextrin (SBECD) and hydroxypropyl-β-cyclodextrin (HP-β-CD) on Compound 1 was investigated by taking the solubility in 50 mM pH 4.5 acetate buffer medium and water as a reference. […] Table Solubility of Compound 1 incubated for 24 h at 25°C
In the art, surfactants may also be used for solubilization. To further improve the solubility of Compound 1, a surfactant was added on the basis of SBECD to investigate the solubility. […] Table Solubility of Compound 1 incubated for 24 h at 25°C

OXA β-lactamases = test: In vitro inhibition of OXA β-lactamases; type: biochemical, Acinetobacter baumannii; conditions: in vitro (background statement)

For `C[C@@H](O)[C@H]1C(=O)N2C(C(=O)O)=C(SCCN=CN)C[C@H]12` [Imipenem, imipenem monohydrate], the “Change in Pre-Tx Log10 load” value ([1]; Imipenem 100 mg/kg total SC) was 0.73 log10 CFU/g, the “Group geometric mean (CFU/g)” value ([1]; Imipenem 100 mg/kg total SC) was 1.08×10^6 CFU/g and the “Log10 group geometric mean (CFU/g)” value ([1]; Imipenem 100 mg/kg total SC) was 6.03 log10 CFU/g. For the same compound, the “Change in Pre-Tx Log10 loading (CFU/g)” value ([2]; Imipenem 96 mg/kg total SC) was 1.85 log10 CFU/g, the “Group geometric mean (CFU/g)” value ([2]; Imipenem 96 mg/kg total SC) was 3.91×10^7 CFU/g and the “Log10 group geometric mean (CFU/g)” value ([2]; Imipenem 96 mg/kg total SC) was 7.59 log10 CFU/g. For the same compound, the “Change in Pre-Tx Log10 loading (CFU/g)” value ([3]; Imipenem 96 mg/kg total SC) was 0.93 log10 CFU/g, the “Group geometric mean (CFU/g)” value ([3]; Imipenem 96 mg/kg total SC) was 1.34×10^7 CFU/g and the “Log10 group geometric mean (CFU/g)” value ([3]; Imipenem 96 mg/kg total SC) was 7.13 log10 CFU/g. The “mean increase in bacterial load” value (Pseudomonas aeruginosa) was 2.64 ± 1.18 log10 CFU/thigh, the “mean increase in bacterial load” value (Acinetobacter baumannii) was 2.16 ± 0.74 log10 CFU/thigh and the “mean increase in bacterial load” value (Klebsiella pneumoniae) was 2.83 ± 0.81 log10 CFU/thigh.
For `N=C1NC[C@@H](c2nnc([C@@H]3CC4(CC4)[C@@H]4CN3C(=O)N4OS(=O)(=O)O)o2)N1` [Compound 1], the “Change in Pre-Tx Log10 load” value ([1]; Compound 1 50 mg/kg total IV) was 0.36 log10 CFU/g, the “Log10 group geometric mean (CFU/g)” value ([1]; Compound 1 50 mg/kg total IV) was 5.67 log10 CFU/g and the “Change in Pre-Tx Log10 load” value ([1]; Compound 1 75 mg/kg total IV) was 0.98 log10 CFU/g. The “Log10 group geometric mean (CFU/g)” value ([1]; Compound 1 75 mg/kg total IV) was 6.29 log10 CFU/g, the “Change in Pre-Tx Log10 load” value ([1]; Compound 1 100 mg/kg total IV) was 1.35 log10 CFU/g and the “Log10 group geometric mean (CFU/g)” value ([1]; Compound 1 100 mg/kg total IV) was 6.65 log10 CFU/g. The “Change in Pre-Tx Log10 loading (CFU/g)” value [4] was 2.45 log10 CFU/g, the “Log10 group geometric mean (CFU/g)” value [4] was 7.51 log10 CFU/g and the “Change in Pre-Tx Log10 loading (CFU/g)” value ([2]; Compound 1 96 mg/kg total IV) was 1.53 log10 CFU/g. For the same compound, the “Log10 group geometric mean (CFU/g)” value ([2]; Compound 1 96 mg/kg total IV) was 7.28 log10 CFU/g, the “Change in Pre-Tx Log10 loading (CFU/g)” value ([3]; Compound 1 96 mg/kg total) was 1.11 log10 CFU/g and the “Log10 group geometric mean (CFU/g)” value ([3]; Compound 1 96 mg/kg total) was 7.31 log10 CFU/g. For the same compound, the solubility at 24 h ([5]; 50 mm acetate buffer, pH 4.5, aqueous buffer, solubility in 50 mM acetate buffer (pH 4.5) (control), 24 h at 25°C) was 3850 µg/mL (≈ 9.64 mM), the solubility at 24 h ([5]; aqueous hp-β-cd 10%, solubility in aqueous HP-β-CD 10%, 24 h at 25°C) was 5000 µg/mL (≈ 12.5 mM) and the solubility at 24 h ([5]; aqueous hp-β-cd 20%, solubility in aqueous HP-β-CD 20%, 24 h at 25°C) was 6400 µg/mL (≈ 16 mM). It also gave a solubility at 24 h ([5]; aqueous hp-β-cd 30%, solubility in aqueous HP-β-CD 30%, 24 h at 25°C) of 7720 µg/mL (≈ 19.3 mM), a solubility at 24 h ([5]; aqueous sbecd 10%, peg 400, organic solvent or mixture, solubility in aqueous SBECD 10% and PEG 400 5%, 24 h at 25°C) of 6210 µg/mL (≈ 15.5 mM) and a solubility at 24 h ([5]; aqueous sbecd 10%, peg 400, organic solvent or mixture, solubility in aqueous SBECD 10% and PEG 400 20%, 24 h at 25°C) of 6350 µg/mL (≈ 15.9 mM). The solubility at 24 h ([5]; aqueous sbecd 10%, peg 400, organic solvent or mixture, solubility in aqueous SBECD 10% and PEG 400 40%, 24 h at 25°C) was 6840 µg/mL (≈ 17.1 mM), the solubility at 24 h ([5]; aqueous sbecd 10%, pvp k12, solubility in aqueous SBECD 10% and PVP K12 0.5%, 24 h at 25°C) was 6440 µg/mL (≈ 16.1 mM) and the solubility at 24 h ([5]; aqueous sbecd 10%, pvp k12, solubility in aqueous SBECD 10% and PVP K12 1%, 24 h at 25°C) was 6420 µg/mL (≈ 16.1 mM). For the same compound, the solubility at 24 h ([5]; aqueous sbecd 10%, pvp k12, solubility in aqueous SBECD 10% and PVP K12 2.5%, 24 h at 25°C) was 6380 µg/mL (≈ 16 mM), the solubility at 24 h ([5]; aqueous sbecd 10%, solubility in aqueous SBECD 10%, 24 h at 25°C) was 5960 µg/mL (≈ 14.9 mM) and the solubility at 24 h ([5]; aqueous sbecd 20%, solubility in aqueous SBECD 20%, 24 h at 25°C) was 8460 µg/mL (≈ 21.2 mM). It also gave a solubility at 24 h ([5]; aqueous sbecd 30%, solubility in aqueous SBECD 30%, 24 h at 25°C) of 10500 µg/mL (≈ 26.3 mM), a solubility at 24 h ([5]; aqueous sbecd, poloxamer 188, solubility in aqueous SBECD 10% and Poloxamer 188 1%, 24 h at 25°C) of 6750 µg/mL (≈ 16.9 mM) and a solubility at 24 h ([5]; aqueous sbecd, pvp, poloxamer 188, solubility in aqueous SBECD 10%, PVP K12 0.5% and Poloxamer 188 1%, 24 h at 25°C) of 6950 µg/mL (≈ 17.4 mM). The solubility at 24 h ([5]; aqueous sbecd, pvp, solutol hs15, solubility in aqueous SBECD 10%, PVP K12 0.5% and Solutol HS15 1%, 24 h at 25°C) was 6870 µg/mL (≈ 17.2 mM), the solubility at 24 h ([5]; aqueous sbecd, pvp, tween 80, solubility in aqueous SBECD 10%, PVP K12 0.5% and Tween 80 1%, 24 h at 25°C) was 6990 µg/mL (≈ 17.5 mM) and the solubility at 24 h ([5]; aqueous sbecd, solutol hs15, solubility in aqueous SBECD 10% and Solutol HS15 1%, 24 h at 25°C) was 6680 µg/mL (≈ 16.7 mM). For the same compound, the solubility at 24 h ([5]; aqueous sbecd, tween 80, solubility in aqueous SBECD 10% and Tween 80 1%, 24 h at 25°C) was 6920 µg/mL (≈ 17.3 mM), the “Concentration” value ([5]; solubility in aqueous SBECD 10%, 24 h at 25°C) was 5960 µg/mL and the “Concentration” value ([5]; solubility in water (control), incubated 24 h at 25°C) was 600 µg/mL. The solubility at 24 h ([5]; water, solubility in water (control), incubated 24 h at 25°C) was 600 µg/mL (≈ 1.5 mM) and the “inhibition of OXA β-lactamases” value (OXA β-lactamases) was “effectively inhibit”.
